From the supplement of paper PMC6045584
± gives the standard deviation of the averaged measurements.

Experiments:
DOXORUBICIN = compound: COc1cccc2c1C(=O)c1c(O)c3c(c(O)c1C2=O)C[C@@](O)(C(=O)CO)C[C@@H]3O[C@H]1C[C@H](N)[C@H](O)[C@H](C)O1 [DOXORUBICIN]; assay: surviving fraction relative to DMSO-only wells; higher = less growth inhibition; settings: exposure time: 5 days
Procedure, shortened: (§1)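 At 250–500 cells per well in 384-well plates, log-phase tumour cell lines were seeded and, 24 hours on, exposed continuously for five days to inhibitors at 0.5, 1, 5, 10, 50, 100, 500 and 1000 nM. Viability readout was CellTiter-Glo luminescence, reported as surviving fraction normalised to the median of DMSO-only wells.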

[1] = compound: CCN(CC)CCCCNc1ncc2cc(-c3cc(OC)cc(OC)c3)c(NC(=O)NC(C)(C)C)nc2n1; assay: as above; settings: exposure time: 5 days
Procedure, shortened: as §1

Row | Test System | surviving fraction (DOXORUBICIN; 0.5 nM) | surviving fraction (DOXORUBICIN; 1 nM) | surviving fraction (DOXORUBICIN; 5 nM) | surviving fraction (DOXORUBICIN; 10 nM) | surviving fraction (DOXORUBICIN; 50 nM) | surviving fraction (DOXORUBICIN; 100 nM) | surviving fraction (DOXORUBICIN; 500 nM) | surviving fraction (DOXORUBICIN; 1000 nM) | surviving fraction ([1]; 0.5 nM) | surviving fraction ([1]; 1 nM) | surviving fraction ([1]; 5 nM) | surviving fraction ([1]; 10 nM) | surviving fraction ([1]; 50 nM) | surviving fraction ([1]; 100 nM) | surviving fraction ([1]; 500 nM) | surviving fraction ([1]; 1000 nM)
1 | SG27 HEADNECK | 0.988 ± 0.057 | 0.967 ± 0.037 | 1.09 ± 0.094 | 1.04 ± 0.059 | 0.949 ± 0.038 | 0.867 ± 0.081 | 0.097 ± 0.014 | 0.0447 ± 0.019 | 0.947 ± 0.15 | 1.03 ± 0.087 | 1.01 ± 0.12 | 1.01 ± 0.086 | 0.879 ± 0.04 | 0.817 ± 0.032 | 0.784 ± 0.05 | 0.805 ± 0.047
2 | SG28 HEADNECK | 1.11 ± 0.12 | 1.11 ± 0.083 | 0.976 ± 0.081 | 1.03 ± 0.011 | 0.851 ± 0.13 | 0.609 ± 0.014 | 0.0457 ± 0.0098 | 0.038 ± 0.0036 | 1.04 ± 0.15 | 1.09 ± 0.076 | 1.03 ± 0.09 | 1.11 ± 0.034 | 0.968 ± 0.028 | 1.05 ± 0.1 | 0.967 ± 0.091 | 0.938 ± 0.11
3 | SG31 HEADNECK | 1.1 ± 0.095 | 1.03 ± 0.035 | 0.818 ± 0.035 | 0.717 ± 0.11 | 0.556 ± 0.03 | 0.495 ± 0.037 | 0.0787 ± 0.02 | 0.0363 ± 0.01 | 1.04 ± 0.055 | 0.949 ± 0.11 | 0.934 ± 0.15 | 0.932 ± 0.12 | 0.845 ± 0.12 | 0.997 ± 0.051 | 0.934 ± 0.069 | 0.934 ± 0.1
4 | SG32 HEADNECK | 1.19 ± 0.12 | 1.07 ± 0.27 | 0.828 ± 0.14 | 0.563 ± 0.099 | 0.414 ± 0.04 | 0.194 ± 0.019 | 0.04 ± 0.017 | 0.0313 ± 0.0081 | 1.03 ± 0.14 | 1.05 ± 0.086 | 1.15 ± 0.13 | 1.01 ± 0.16 | 0.859 ± 0.027 | 0.793 ± 0.0076 | 1.36 ± 0.92 | 0.884 ± 0.15
5 | SG43 HEADNECK | 0.854 ± 0.15 | 0.776 ± 0.14 | 0.802 ± 0.076 | 0.675 ± 0.16 | 0.453 ± 0.056 | 0.322 ± 0.067 | 0.0633 ± 0.027 | 0.048 ± 0.024 | 0.9 ± 0.076 | 0.971 ± 0.053 | 0.974 ± 0.15 | 0.966 ± 0.095 | 0.85 ± 0.13 | 0.905 ± 0.24 | 0.95 ± 0.12 | 0.811 ± 0.16
6 | SIHA CERVIX | 0.996 ± 0.084 | 0.998 ± 0.08 | 1.04 ± 0.053 | 0.9867 ± 0.0011 | 0.505 ± 0.04 | 0.481 ± 0.0086 | 0.0967 ± 0.061 | 0.0287 ± 0.00058 | 0.945 ± 0.075 | 0.972 ± 0.043 | 1.07 ± 0.055 | 1.07 ± 0.051 | 0.908 ± 0.063 | 0.905 ± 0.098 | 0.776 ± 0.027 | 0.818 ± 0.013
7 | SJSA1 BONE | 1.02 ± 0.015 | 0.991 ± 0.027 | 0.927 ± 0.012 | 0.636 ± 0.052 | 0.564 ± 0.014 | 0.284 ± 0.013 | 0.0957 ± 0.005 | 0.0317 ± 0.0021 | 1.04 ± 0.052 | 1.04 ± 0.026 | 1.04 ± 0.026 | 1.09 ± 0.034 | 1.08 ± 0.021 | 1.07 ± 0.038 | 1.023 ± 0.0089 | 1.04 ± 0.034
8 | SKBR3 BREAST | 0.804 ± 0.17 | 0.871 ± 0.1 | 0.852 ± 0.049 | 0.724 ± 0.16 | 0.375 ± 0.026 | 0.256 ± 0.0044 | 0.0547 ± 0.0061 | 0.0297 ± 0.0032 | 0.9 ± 0.11 | 0.967 ± 0.072 | 0.975 ± 0.22 | 0.851 ± 0.057 | 0.979 ± 0.13 | 0.992 ± 0.077 | 1 ± 0.05 | 0.848 ± 0.13
9 | SNU475 LIVER | 0.958 ± 0.051 | 0.9777 ± 0.0038 | 0.982 ± 0.018 | 0.958 ± 0.059 | 0.484 ± 0.034 | 0.392 ± 0.015 | 0.3 ± 0.032 | 0.192 ± 0.012 | 0.785 ± 0.028 | 0.964 ± 0.053 | 0.894 ± 0.05 | 0.987 ± 0.027 | 0.916 ± 0.044 | 0.939 ± 0.019 | 0.906 ± 0.022 | 0.886 ± 0.029
10 | SUM44 BREAST | 0.938 ± 0.054 | 0.887 ± 0.041 | 0.987 ± 0.044 | 0.895 ± 0.022 | 0.859 ± 0.06 | 0.811 ± 0.051 | 0.14 ± 0.021 | 0.054 ± 0.0027 | 0.956 ± 0.064 | 0.928 ± 0.04 | 1.03 ± 0.019 | 1.04 ± 0.087 | 1.04 ± 0.095 | 1.04 ± 0.094 | 0.985 ± 0.026 | 1.03 ± 0.037
11 | SUM149 BREAST | 1.01 ± 0.013 | 0.961 ± 0.13 | 0.401 ± 0.056 | 0.233 ± 0.025 | 0.186 ± 0.014 | 0.145 ± 0.0087 | 0.0277 ± 0.0031 | 0.0253 ± 0.00058 | 0.881 ± 0.14 | 1.12 ± 0.057 | 0.998 ± 0.037 | 1.21 ± 0.049 | 1.03 ± 0.069 | 1.1 ± 0.13 | 1.01 ± 0.056 | 1.08 ± 0.14
12 | SUM149.B1*.S BREAST | 1.03 ± 0.031 | 1.065 ± 0.0083 | 1.01 ± 0.043 | 0.931 ± 0.041 | 0.285 ± 0.0081 | 0.179 ± 0.014 | 0.068 ± 0.0038 | 0.0518 ± 0.0023 | 0.852 ± 0.049 | 1 ± 0.017 | 0.952 ± 0.024 | 1.02 ± 0.021 | 0.933 ± 0.029 | 1.06 ± 0.041 | 1.03 ± 0.011 | 1.08 ± 0.017
13 | SUM159 BREAST | 1.1 ± 0.14 | 1.08 ± 0.11 | 1.05 ± 0.11 | 0.964 ± 0.043 | 0.176 ± 0.045 | 0.173 ± 0.027 | 0.0397 ± 0.0021 | 0.039 ± 0.002 | 1.14 ± 0.3 | 1.1 ± 0.2 | 1.18 ± 0.36 | 1.14 ± 0.26 | 1.12 ± 0.26 | 1.13 ± 0.23 | 1.11 ± 0.21 | 1.18 ± 0.3
14 | SYO1 SYNOVIAL | 0.944 ± 0.065 | 0.906 ± 0.017 | 0.39 ± 0.066 | 0.176 ± 0.05 | 0.0563 ± 0.015 | 0.0384 ± 0.0093 | 0.0205 ± 0.00087 | 0.0309 ± 0.0013 | 0.786 ± 0.081 | 0.961 ± 0.052 | 0.859 ± 0.044 | 0.868 ± 0.043 | 0.699 ± 0.016 | 0.727 ± 0.056 | 0.669 ± 0.055 | 0.653 ± 0.009
15 | T47D BREAST | 1.03 ± 0.03 | 1 ± 0.038 | 0.892 ± 0.018 | 0.673 ± 0.064 | 0.708 ± 0.021 | 0.518 ± 0.023 | 0.197 ± 0.033 | 0.0751 ± 0.0032 | 0.967 ± 0.03 | 1.02 ± 0.028 | 1.02 ± 0.047 | 1.01 ± 0.017 | 1.03 ± 0.023 | 1.02 ± 0.043 | 1.02 ± 0.054 | 1.08 ± 0.03
16 | U2OS BONE | 1.04 ± 0.053 | 1.01 ± 0.015 | 0.86 ± 0.018 | 0.72 ± 0.05 | 0.606 ± 0.037 | 0.376 ± 0.013 | 0.04 ± 0.0017 | 0.0373 ± 0.0021 | 1 ± 0.011 | 0.994 ± 0.026 | 1.03 ± 0.045 | 1.01 ± 0.02 | 0.916 ± 0.012 | 0.825 ± 0.017 | 0.745 ± 0.049 | 0.739 ± 0.0095
17 | VCAP PROSTATE | 1.18 ± 0.094 | 0.982 ± 0.1 | 1.1 ± 0.073 | 0.51 ± 0.028 | 1.02 ± 0.052 | 0.291 ± 0.0036 | 0.0377 ± 0.0064 | 0.0397 ± 0.015 | 0.963 ± 0.068 | 1.07 ± 0.06 | 1.04 ± 0.047 | 1.1 ± 0.028 | 1.06 ± 0.034 | 1.12 ± 0.069 | 0.998 ± 0.059 | 1.01 ± 0.055
18 | VP229 BREAST | 1.18 ± 0.067 | 1.11 ± 0.14 | 1 ± 0.11 | 0.931 ± 0.022 | 0.835 ± 0.11 | 0.567 ± 0.027 | 0.569 ± 0.13 | 0.233 ± 0.056 | 1.15 ± 0.079 | 1.09 ± 0.031 | 1.1 ± 0.12 | 1.11 ± 0.028 | 1.22 ± 0.12 | 1.11 ± 0.13 | 1.22 ± 0.061 | 1.15 ± 0.11
19 | YAMATO SYNOVIAL | 1.1 ± 0.058 | 1.14 ± 0.058 | 0.963 ± 0.069 | 0.7417 ± 0.0035 | 0.388 ± 0.018 | 0.329 ± 0.03 | 0.258 ± 0.012 | 0.341 ± 0.016 | 0.852 ± 0.029 | 1.2 ± 0.13 | 1.19 ± 0.058 | 1.31 ± 0.062 | 1.14 ± 0.024 | 1.37 ± 0.037 | 1.2 ± 0.069 | 1.08 ± 0.088
20 | ZR751 BREAST | 1.12 ± 0.095 | 1.08 ± 0.16 | 0.786 ± 0.074 | 0.846 ± 0.12 | 0.585 ± 0.047 | 0.361 ± 0.054 | 0.174 ± 0.018 | 0.0463 ± 0.00058 | 0.946 ± 0.032 | 1.03 ± 0.063 | 0.954 ± 0.017 | 1.01 ± 0.19 | 0.912 ± 0.04 | 1.1 ± 0.11 | 1.01 ± 0.067 | 1.05 ± 0.12
